A value given as a limit tells only on which side of the number the result lay.

One series concerns the target T1, DMT1 (Homo sapiens, UniProt P49281).
T1 sequence (P49281 1-568): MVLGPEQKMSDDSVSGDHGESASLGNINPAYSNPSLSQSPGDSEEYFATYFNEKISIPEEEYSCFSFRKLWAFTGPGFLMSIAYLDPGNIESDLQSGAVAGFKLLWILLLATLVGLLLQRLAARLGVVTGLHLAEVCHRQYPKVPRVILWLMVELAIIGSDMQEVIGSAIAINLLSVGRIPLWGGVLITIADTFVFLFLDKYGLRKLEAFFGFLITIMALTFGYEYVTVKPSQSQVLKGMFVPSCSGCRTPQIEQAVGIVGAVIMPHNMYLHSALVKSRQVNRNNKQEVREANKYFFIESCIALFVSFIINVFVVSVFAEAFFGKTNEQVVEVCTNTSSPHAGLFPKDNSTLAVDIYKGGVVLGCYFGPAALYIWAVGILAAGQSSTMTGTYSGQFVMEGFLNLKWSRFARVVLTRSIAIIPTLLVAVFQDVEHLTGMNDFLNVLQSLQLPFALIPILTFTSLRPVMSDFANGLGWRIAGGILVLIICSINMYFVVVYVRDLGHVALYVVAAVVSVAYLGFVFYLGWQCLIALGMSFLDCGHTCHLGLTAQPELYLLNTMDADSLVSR
The series can be described thus: DMT1 activity assay (in vitro). In kind it is cell-based. The conditions noted are these: inhibition of DMT1; read-out: IC50 Activity Level. An excerpt: One such protocol involves the screening of chemical agents for ability to modulate the activity of DMT1 thereby identifying it as a modulating agent. The in vitro activity of DMT1 can be measured in cell based assays by either directly measuring iron flux (using a radioactively labelled iron ^55Fe) or by measuring the fluorescence of a cell permeable iron fluorophore such as calcein. Stable cell lines overexpressing DMT1 are exposed to ^55Fe or loaded with calcein and then compound is applied. […] Alternatively, in another format electrophysiological techniques can be used to measure the current or iron or other metals traversing the cell membrane with DMT1 in a Xenopus oocyte or other cell based system (Gunshin et al., Nature, 1997, 31; 388(6641):482-8).
This example discloses various in vitro assay for testing and profiling test agents against DMT1 stably expressed in cells of either an endogenous or recombinant origin. These assays can use stable cell lines overexpressing DMT1 or intestinal cells and intestinal tissue expressing endogenous DMT1. DMT1 function could also be assessed in other cell types that express DMT1. Of greatest relevance would be the erythrocytes (e.g. K562 cells) or hepatocytes (e.g. […]).
DMT1 function can be assessed in a number of ways, including monitoring fluorescence changes of an iron fluorophore (e.g. calcein), monitoring uptake of radiolabelled iron (^55Fe or ^59Fe) (Picard et al., J. Biol. Chem., 2000, 275(46):35738-45 and Wetli et al., Chem. Biol. 2006 September; 13(9):965-72), or by assessing the current or transport of iron and other metals into the cells or tissues using standard electrophysiological techniques (Gunshin et al., Nature, 1997, 388(6641):482-8.).
Variations of these assays involve alterations of incubation times, the iron status of the cells and tissues (which may be modulated by chemical chelators or by harvesting from iron deficient animals), the metal cation detected and the pH of the reaction can generally be made by conventional techniques known to those skilled in the art.

As for `Oc1c2c(nn1-c1ccccn1)CCc1ccccc1-2` [Example 1, 2-pyridin-2-yl-4,5-dihydro-2H-benzo[e]indazol-1-ol], the melting point (in general, the temperature of the solid-liquid transition) was in the range of 145 to 146 °C.
`Oc1c2c(nn1-c1ccccn1)CCc1cc(Br)ccc1-2` [Example 1.1, 7-bromo-2-pyridin-2-yl-4,5-dihydro-2H-benzo[e]indazol-1-ol] came in with a melting point of 164 to 165 °C.
Still for that read-out and setting: then `COc1ccc2c(c1)CCc1nn(-c3ccccn3)c(O)c1-2` [Example 1.2, 7-methoxy-2-pyridin-2-yl-4,5-dihydro-2H-benzo[e]indazol-1-ol], with 139 to 140 °C.
Turning to `COc1ccc2c(c1)-c1c(nn(-c3ccccn3)c1O)CC2` [Example 1.3, 8-methoxy-2-pyridin-2-yl-4,5-dihydro-2H-benzo[e]indazol-1-ol], the melting point lay in the range of 116 to 117 °C. Also, the half-inhibitory concentration (IC50) (in general, the concentration that inhibits the measured activity by half) on DMT1 is ≥ 1000 nM.
In turn, `N#Cc1ccc2c(c1)CCc1nn(-c3ccccn3)c(O)c1-2` [Example 1.4, 1-hydroxy-2-pyridin-2-yl-4,5-dihydro-2H-benzo[e]indazole-7-carbonitrile] showed a melting point of 232 to 233 °C.
With `Cc1ccc(-c2ccc3c(c2)CCc2nn(-c4ccccn4)c(O)c2-3)cc1` [Example 1.6, 2-pyridin-2-yl-7-p-tolyl-4,5-dihydro-2H-benzo[e]indazol-1-ol], the melting point was 177 to 178 °C.
As for `COc1ccc(-c2ccc3c(c2)CCc2nn(-c4ccccn4)c(O)c2-3)cc1` [Example 1.7, 7-(4-methoxyphenyl)-2-pyridin-2-yl-4,5-dihydro-2H-benzo[e]indazol-1-ol], the melting point fell in the range of 159 to 160 °C.
With `Oc1c2c(nn1-c1ccccn1)CCc1cc(-c3ccc4c(c3)OCO4)ccc1-2` [Example 1.8, 7-benzo[1,3]dioxol-5-yl-2-pyridin-2-yl-4,5-dihydro-2H-benzo[e]indazol-1-ol], the melting point was 205 to 206 °C. On DMT1, the concentration for half-maximal inhibition (IC50) fell in the range of 100 to 1000 nM.
For `N#Cc1ccc(-c2ccc3c(c2)CCc2nn(-c4ccccn4)c(O)c2-3)cc1` [Example 1.9, 4-(1-hydroxy-2-pyridin-2-yl-4,5-dihydro-2H-benzo[e]indazol-7-yl)-benzonitrile] the same measures were 274 to 275 °C and ≥ 1000 nM.
Molecule `Oc1c2c(nn1-c1ccc(C(F)(F)F)cn1)CCc1ccccc1-2` [Example 1.10, 2-(5-(trifluoromethyl)pyridin-2-yl)-4,5-dihydro-2H-benzo[e]indazol-1-ol] yielded a melting point of 158 to 159 °C. Besides, at DMT1, the half-inhibitory concentration (IC50) is ≥ 1000 nM.
Taken in the same sequence, the figures for `Oc1c2c(nn1-c1cc(C(F)(F)F)ccn1)CCc1ccccc1-2` [Example 1.11, 2-(4-(trifluoromethyl)pyridin-2-yl)-4,5-dihydro-2H-benzo[e]indazol-1-ol] were 161 to 162 °C and 100 to 1000 nM.
Molecule `Oc1c2c(nn1-c1ncccc1C(F)(F)F)CCc1ccccc1-2` [Example 1.12, 2-(3-(trifluoromethyl)pyridin-2-yl)-4,5-dihydro-2H-benzo[e]indazol-1-ol] came in with a melting point of 174 to 175 °C. Moreover, the IC50 on DMT1 is ≥ 1000 nM.
For the molecule `O=[N+]([O-])c1ccc(-n2nc3c(c2O)-c2ccccc2CC3)nc1` [Example 1.13, 2-(5-nitropyridin-2-yl)-4,5-dihydro-2H-benzo[e]indazol-1-ol], the melting point was 226 to 227 °C. Besides, the IC50 at DMT1 was 100 to 1000 nM.
Taken in the same sequence, the figures for `Cc1ccc(-n2nc3c(c2O)-c2ccccc2CC3)nc1` [Example 2, 2-(5-methylpyridin-2-yl)-4,5-dihydro-2H-benzo[e]indazol-1-ol] were 156 to 157 °C and 100 to 1000 nM.
For the molecule `[O-][n+]1ccccc1-n1nc2c(c1O)-c1ccccc1CC2` [Example 3, 2-(1-hydroxy-4,5-dihydro-2H-benzo[e]indazol-2-yl)pyridine 1-oxide], the melting point was in the range of 155 to 156 °C.
The same measure, in the same setting: then `Oc1c2c(nn1-c1nc3ccccc3s1)CCc1ccccc1-2` [Example 4, 2-(benzo[d]thiazol-2-yl)-4,5-dihydro-2H-benzo[e]indazol-1-ol], with 234 to 235 °C.
With `COc1ccc2c(c1)CCc1nn(-c3nc4ccccc4s3)c(O)c1-2` [Example 4.1, 2-(benzo[d]thiazol-2-yl)-7-methoxy-4,5-dihydro-2H-benzo[e]indazol-1-ol], the melting point lay within 182 to 183 °C. The IC50 at DMT1 fell in the range of 100 to 1000 nM.
Turning to `COc1ccc2nc(-n3nc4c(c3O)-c3ccccc3CC4)sc2c1` [Example 4.2, 2-(6-methoxybenzo[d]thiazol-2-yl)-4,5-dihydro-2H-benzo[e]indazol-1-ol], the melting point lay in the range of 204 to 205 °C.
On the same count and under the same terms, the same measure for `Oc1c2c(nn1-c1nc3ccc(F)cc3s1)CCc1ccccc1-2` [Example 4.3, 2-(6-fluorobenzo[d]thiazol-2-yl)-4,5-dihydro-2H-benzo[e]indazol-1-ol]: 246 to 247 °C; for `Cc1ccc2nc(-n3nc4c(c3O)-c3ccccc3CC4)sc2c1` [Example 4.4, 2-(6-methylbenzo[d]thiazol-2-yl)-4,5-dihydro-2H-benzo[e]indazol-1-ol]: 218 to 219 °C; for `Cc1cccc2sc(-n3nc4c(c3O)-c3ccccc3CC4)nc12` [Example 4.5, 2-(4-methylbenzo[d]thiazol-2-yl)-4,5-dihydro-2H-benzo[e]indazol-1-ol]: 224 to 225 °C.
On the same count and under the same terms, then `O=C(O)c1ccc2nc(-n3nc4c(c3O)-c3ccccc3CC4)sc2c1` [Example 4.6, 2-(1-hydroxy-4,5-dihydro-2H-benzo[e]indazol-2-yl)benzo[d]thiazole-6-carboxylic acid], with > 280 °C.
On to `CC(C)(C)c1csc(-n2nc3c(c2O)-c2ccccc2CC3)n1.Cl` [Example 5, 2-(4-tert-butylthiazol-2-yl)-4,5-dihydro-2H-benzo[e]indazol-1-ol hydrochloride], for which the melting point is > 250 °C. Besides, the IC50 on DMT1 was ≥ 1000 nM.
As for `Oc1c2c(nn1-c1nc3ccccc3[nH]1)CCc1ccccc1-2` [Example 6, 2-(1H-benzo[d]imidazol-2-yl)-4,5-dihydro-2H-benzo[e]indazol-1-ol], the melting point fell in the range of 205 to 206 °C.
Molecule `Oc1c2c(nn1-c1ccccn1)CCCc1ccccc1-2` [Example 7, 2-pyridin-2-yl-2,4,5,6-tetrahydro-2,3-diaza-benzo[e]azulen-1-ol] showed a melting point of 80 to 81 °C. Further, the IC50 on DMT1 fell in the range of 100 to 1000 nM.

The record behind these values is US20080234327A1, “DIHYDROINDAZOLE COMPOUNDS USEFUL IN TREATING IRON DISORDERS” (XENON PHARMACEUTICALS INC., priority 2007, published 2008).
